Assay [1] addresses T1, Acetylcholinesterase (Homo sapiens, UniProt P22303). Briefly: Inhibition of AChE (unknown origin) using acetylthiocholine iodide as substrate incubated for 20 mins followed by substrate addition by Ellman's method.
Assay [2] has as its target T2, Cholinesterase (Homo sapiens, UniProt P06276). Briefly: Inhibition of BuChE (unknown origin) using acetylthiocholine iodide as substrate incubated for 20 mins followed by substrate addition by Ellman's method.
In assay [3] the target is T1, Acetylcholinesterase. Kind of assay: Inhibition of AChE (unknown origin).
In assay [4] the target is T2, Cholinesterase. Briefly: Inhibition of BuChE (unknown origin).
Assay [5] deals with T1, Acetylcholinesterase. Kind of assay: Inhibition of AChE (unknown origin) incubated for 40 mins by Ellman's method. For orientation: In Ellman's method for cholinesterases, released thiocholine reacts with DTNB.

Where “and” joins values, the source holds several entries; their conditions need not be identical. Equal values may be shown once. A value given as a limit tells only on which side of the number the result lay.

T2 sequence (P06276 whole entry): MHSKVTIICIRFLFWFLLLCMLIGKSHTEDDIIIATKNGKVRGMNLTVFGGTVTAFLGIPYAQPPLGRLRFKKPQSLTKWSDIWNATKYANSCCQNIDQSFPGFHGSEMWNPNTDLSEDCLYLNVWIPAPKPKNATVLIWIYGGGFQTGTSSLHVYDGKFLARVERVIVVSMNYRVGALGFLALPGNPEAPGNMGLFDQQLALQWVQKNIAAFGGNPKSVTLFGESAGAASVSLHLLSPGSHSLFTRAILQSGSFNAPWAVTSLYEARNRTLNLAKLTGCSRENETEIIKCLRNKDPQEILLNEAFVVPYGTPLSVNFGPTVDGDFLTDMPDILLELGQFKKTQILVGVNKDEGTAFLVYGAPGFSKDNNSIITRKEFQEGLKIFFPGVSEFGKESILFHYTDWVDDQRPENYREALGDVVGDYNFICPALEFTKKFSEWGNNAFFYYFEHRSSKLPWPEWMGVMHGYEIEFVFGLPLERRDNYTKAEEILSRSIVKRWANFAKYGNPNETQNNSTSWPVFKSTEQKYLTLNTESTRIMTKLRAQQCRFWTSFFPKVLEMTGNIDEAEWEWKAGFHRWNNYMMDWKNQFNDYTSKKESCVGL
T1 sequence (P22303 whole entry): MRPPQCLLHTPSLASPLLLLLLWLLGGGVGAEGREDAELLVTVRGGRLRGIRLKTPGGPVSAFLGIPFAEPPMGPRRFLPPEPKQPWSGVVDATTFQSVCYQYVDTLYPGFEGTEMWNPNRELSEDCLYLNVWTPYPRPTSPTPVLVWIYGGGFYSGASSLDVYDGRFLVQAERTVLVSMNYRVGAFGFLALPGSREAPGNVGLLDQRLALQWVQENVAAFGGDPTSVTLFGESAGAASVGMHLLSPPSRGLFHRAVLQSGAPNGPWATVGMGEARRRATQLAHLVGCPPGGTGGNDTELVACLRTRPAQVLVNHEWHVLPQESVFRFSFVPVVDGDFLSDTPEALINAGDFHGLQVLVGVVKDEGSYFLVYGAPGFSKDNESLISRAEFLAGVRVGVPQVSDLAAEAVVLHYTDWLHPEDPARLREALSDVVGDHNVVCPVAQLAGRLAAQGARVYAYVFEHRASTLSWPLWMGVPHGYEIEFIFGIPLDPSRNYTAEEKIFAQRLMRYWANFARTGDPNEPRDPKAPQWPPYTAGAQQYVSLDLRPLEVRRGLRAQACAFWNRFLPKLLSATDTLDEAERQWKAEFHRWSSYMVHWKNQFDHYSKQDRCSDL

A word on the IC50: it is the concentration that gives 50% inhibition. A high value points to weaker potency in that assay. As to `CCCCCCCNC(=O)Oc1ccc2c(c1)CN1CCc3c([nH]c4ccccc34)C1N2C` (configuration not stated), the values for the IC50 against Acetylcholinesterase [1] and at Cholinesterase [2] were over 10000 nM and 77 nM, respectively.

Consider `c1ccc2c(c1)CN1CCc3c([nH]c4ccccc34)C1=N2`, for which the IC50 stood at 3400 nM at Acetylcholinesterase [1] and 500 nM at Cholinesterase [2].

With `O=C1c2ccccc2-[n+]2ccc3c([nH]c4ccccc43)c21` [FASCAPLYSIN], the results for the IC50 at Acetylcholinesterase [1] and at Cholinesterase [2] were 1500 nM and 90000 nM, respectively.

As for `O=C(CN1CCCCC1)Nc1ccc2nc3c4[nH]c5ccccc5c4ccn3c(=O)c2c1`, the IC50 turned out to be 10 nM at Acetylcholinesterase [1] and 5400 nM against Cholinesterase [2].

With `CN1c2ccc(OCc3ccccc3)cc2C(=O)N2CCc3c([nH]c4ccccc34)C21` (configuration not stated), the IC50 at Acetylcholinesterase [1] amounted to 3000 nM; on Cholinesterase [2], 880 nM.

With `O=C(CCN1CCCC1)Nc1ccc2c(c1)CN1CCc3c([nH]c4ccccc34)C1=N2`, the values for the IC50 against Acetylcholinesterase [1] and at Cholinesterase [2] were 29 nM and 840 nM, respectively.

On to `Cc1cc2cc3n(c(=O)c2cn1)CCc1c-3[nH]c2ccccc12`, for which the IC50 at Acetylcholinesterase [1] came to 22000 nM; at Cholinesterase [2], 1000 nM.

For the molecule `Cc1ccc(-[n+]2ccc3c4ccccc4n(C)c3c2)cc1`, the IC50 is 290 nM and 300 nM against Acetylcholinesterase [3]; 32000 nM and 116000 nM at Cholinesterase [4]; 240 nM against Acetylcholinesterase [5].

The record behind these values is ChEMBL document CHEMBL5233266, “β-Carboline as a Privileged Scaffold for Multitarget Strategies in Alzheimer's Disease Therapy” (J Med Chem, 2021).
